Assays:
[1] = target: T1, Aromatase (Homo sapiens, UniProt P11511); assay: Inhibition of human placental microsomal aromatase using [1beta-3H] androstenedione as substrate assessed as tritiated H2O release after 15 mins by liquid scintillation counting method
T1 sequence (P11511 whole entry): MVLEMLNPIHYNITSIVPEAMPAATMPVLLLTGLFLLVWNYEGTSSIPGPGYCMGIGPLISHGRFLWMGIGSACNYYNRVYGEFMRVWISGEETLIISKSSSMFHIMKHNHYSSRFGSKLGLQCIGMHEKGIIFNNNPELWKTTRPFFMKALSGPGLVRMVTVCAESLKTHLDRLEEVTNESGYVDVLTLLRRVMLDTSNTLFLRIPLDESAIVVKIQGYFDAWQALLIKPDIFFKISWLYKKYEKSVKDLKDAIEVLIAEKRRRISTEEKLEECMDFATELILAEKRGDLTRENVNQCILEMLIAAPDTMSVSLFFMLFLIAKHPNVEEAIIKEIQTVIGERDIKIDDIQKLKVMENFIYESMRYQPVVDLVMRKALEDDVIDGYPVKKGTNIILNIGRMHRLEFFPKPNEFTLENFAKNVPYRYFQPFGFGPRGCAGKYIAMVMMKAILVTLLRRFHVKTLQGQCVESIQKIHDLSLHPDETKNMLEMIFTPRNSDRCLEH

[2] = target: T1, Aromatase
Description: Competitive inhibition of human placental microsomal aromatase using androgen as substrate

[3] = target: T1, Aromatase; assay: Inhibition of human placental microsomal aromatase using testosterone as substrate assessed as formation of estradiol after 10 mins
[4] = target: T1, Aromatase; assay: Inhibition of particulate fractions of human breast cancer derived aromatase
[5] = target: T1, Aromatase; assay: Inhibition of human aromatase using testosterone as substrate incubated for 1 hr by HTRF assay
[6] = target: T1, Aromatase; assay: Inhibition of human placental microsomal aromatase using [1beta-3H] androstenedione as substrate assessed as tritiated H2O release preincubated for 5 mins followed by protein addition measured after 20 mins by beta counting method

Compound `C=CC[C@@H]1CC2=CC(=O)C=C[C@]2(C)[C@H]2CC[C@]3(C)[C@@H](O)CC[C@H]3[C@H]12` has an IC50 [1] of 450 nM.

`COc1ccc2c(Cc3ccccc3)c(-c3ccc(Cl)cc3)c(=O)oc2c1` gave a Ki [2] of 84 nM.

For `C=CC[C@@H]1CC2=CCCC[C@]2(C)[C@H]2CC[C@]3(C)C(=O)CC[C@H]3[C@H]12`, the IC50 [1] was 750 nM.

Compound `CC/C(=C(\c1ccc(O)cc1)c1ccc(OCCN(C)C)cc1)c1ccccc1` [AFIMOXIFENE] has an IC50 [3] of 530000 nM.

`C[C@]12CCC(=O)C(O)=C1CC[C@@H]1[C@@H]2CC[C@]2(C)C(=O)CC[C@@H]12` [FORMESTANE] gave an IC50 [4] of 30 nM.

`C=CC[C@@H]1CC2=CC(=O)CC[C@]2(C)[C@H]2CC[C@]3(C)C(=O)CC[C@H]3[C@H]12` was tested, and the IC50 [1] was 590 nM.

In the case of `Fc1ccc(-c2cc(-n3cccc3)c3ccccc3n2)cc1`, the IC50 [5] is reported as 800 nM.

Compound `C[C@]12Cc3cc[nH]c3C(=O)[C@@H]1CC[C@@H]1[C@@H]2CC[C@]2(C)[C@@H](O)CC[C@@H]12` has an IC50 [6] of 512 nM.

From ChEMBL document CHEMBL3817793, “Recent Progress in the Discovery of Next Generation Inhibitors of Aromatase from the Structure-Function Perspective” (J Med Chem, 2016)
